This is an account of results in ChEMBL document CHEMBL5233251, “Epoxide containing molecules: A good or a bad drug design approach” (Eur J Med Chem, 2020).

Test [1] deals with K562. Briefly: Antiproliferative activity against human K562 cells assessed as reduction in cell viability incubated for 48 hrs by CytoX cell viability assay. Type of test: functional, cell-based. The conditions noted are these: K562, 48 h.
Test [2] deals with MCF7. Briefly: Antiproliferative activity against human MCF7 cells assessed as reduction in cell viability incubated for 48 hrs by CytoX cell viability assay. Type of test: functional, cell-based. Particulars: MCF7, 48 h.
Test [3] relates to HeLa. Briefly: Antiproliferative activity against human HeLa cells assessed as reduction in cell viability incubated for 48 hrs by CytoX cell viability assay. Type of test: functional, cell-based.
Test [4] has as its system HCT-15. Kind of test: Antiproliferative activity against human HCT-15 cells assessed as reduction in cell viability incubated for 48 hrs by CytoX cell viability assay. Type of test: functional, cell-based. Particulars: HCT-15, 48 h.
In test [5] the test system is DU-145. Kind of test: Antiproliferative activity against human DU-145 cells assessed as reduction in cell viability incubated for 48 hrs by CytoX cell viability assay. The class given is functional, cell-based. The conditions noted are these: DU-145, 48 h.
Test [6] has as its system Hyalomma lusitanicum. Briefly: Anti-insecticidal activity against Hyalomma lusitanicum Koch larvae assessed as inhibition of larval growth. The conditions noted are these: for LC50: Hyalomma lusitanicum, read-out: LD50 (the source's name). The class given is functional.
Test [7] has as its system HEp-2. Kind of test: Cytotoxicity against human HEp-2 cells assessed as inhibition of cell growth. Particulars: read-out: ED50 (the source's name). Type of test: functional.

Molecules are shown by their SMILES. In brackets after ≈: the same amount, converted by molar mass.

Usually IC50 stands for the midpoint of a concentration-inhibition curve. On to `CC[C@@]1(O)C(=O)OCc2c1cc1n(c2=O)Cc2cc3ccccc3nc2-1` [CAMPTOTHECIN], for which the IC50 in test [1] amounted to 2.69 µM; in test [2] it was 2.8 µM; in test [3], 6 µM; in test [4], 1.59 µM; in test [5] it was 1.99 µM.

Take `Cc1cc(=O)c2c(O)cc(OC[C@@H]3CO3)cc2o1`: the IC50 worked out at 8.03 µM in test [1]; 36.2 µM in test [2]; 11.9 µM in test [3]; 17.5 µM in test [4]; 7.58 µM in test [5].

As for `CC(C)=C1C/C=C(\C)CC[C@H]2O[C@@]2(C)CC1=O`, in test [6], the LD90 turned out to be 4.1 mg/mL and the LC50 came out at 2700 µg/mL (≈ 11500 µM).

With `C[C@@H]1C[C@H]2OC(=O)C(CN(C)C)[C@H]2[C@H](O)[C@]2(C)C(=O)C3OC3[C@@H]12` (some centres undefined), the EC50 in test [7] amounted to 0.11 µg/mL (≈ 0.34 µM).

As to `C=C1C(=O)O[C@@H]2C[C@@H](C)[C@]34O[C@H]3CC(=O)[C@@]4(C)[C@@H](O)[C@H]12`, the EC50 in test [7] was 0.11 µg/mL (≈ 0.395 µM).

Consider `Cc1cc(=O)c2c(OCC3CO3)cc(OCC3CO3)cc2o1` (centres undefined), for which the IC50 in test [1] was found to be 6.3 µM; in test [2], 6.5 µM; in test [3], 5.4 µM; in test [4] it was 12.1 µM; in test [5] it was 7.3 µM.

For `Cc1cc(=O)c2c(OC[C@H]3CO3)cc(OC[C@@H]3CO3)cc2o1`, the IC50 turned out to be 0.04 µM in test [1]; 1.88 µM in test [2]; 1.77 µM in test [3]; 9.59 µM in test [4]; 628 µM in test [5].

For the molecule `CC(C)=C1C/C=C(\C)CCCC2(C)OC2C1=O` (centres undefined), in test [6], the LD90 came to 2.98 mg/mL and the LC50 turned out to be 2320 µg/mL (≈ 9900 µM).

Consider `C=C1C(=O)O[C@@H]2C[C@@H](C)[C@@H]3C4OC4C(=O)[C@@]3(C)[C@@H](O)[C@H]12` (some centres undefined), for which the EC50 in test [7] was 0.11 µg/mL (≈ 0.395 µM).

With `CC1C(=O)O[C@@H]2C[C@@H](C)[C@]34O[C@H]3CC(=O)[C@@]4(C)[C@@H](O)[C@H]12` (some centres undefined), the EC50 in test [7] stood at 0.11 µg/mL (≈ 0.392 µM).

As to `Cc1cc(=O)c2c(O)cc(OCC3CO3)cc2o1` (centres undefined), the IC50 worked out at 143 µM in test [1]; 13.6 µM in test [2]; 17.7 µM in test [3]; 18.3 µM in test [4]; 20.9 µM in test [5].

Take `Cc1cc(=O)c2c(OC[C@@H]3CO3)cc(OC[C@@H]3CO3)cc2o1`: the IC50 in test [1] worked out at 19.5 µM; in test [2] it was 46.1 µM; in test [3], 21.7 µM; in test [4], 39.5 µM; in test [5] it was 24.5 µM.

For the molecule `CC1=C2CC3(OC3(C)C)C(=O)C[C@@]2(C)CCC1` (some centres undefined), in test [6], the LD90 was found to be 6.33 mg/mL and the LC50 turned out to be 4140 µg/mL (≈ 17700 µM).

As for `C[C@@H]1C[C@H]2OC(=O)C(C3CO3)[C@H]2[C@H](O)[C@]2(C)C(=O)C3OC3[C@@H]12` (some centres undefined), in test [7], the EC50 amounted to 0.11 µg/mL (≈ 0.357 µM).

For the molecule `C/C1=C\CC2(OC2(C)C)C(=O)C/C(C)=C/CC1` (centres undefined), in test [6], the LD90 was determined as 2.43 mg/mL and the LC50 was 1210 µg/mL (≈ 5160 µM).

In the case of `CC1=CCC[C@]2(C)CC(=O)C3(C[C@@H]12)OC3(C)C` (some centres undefined), in test [6], the LD90 worked out at 1.91 mg/mL and the LC50 came out at 230 µg/mL (≈ 981 µM).

Consider `CC(C)=C1C[C@H]2O[C@@]2(C)CC/C=C(\C)CC1=O`, for which, in test [6], the LD90 was 3.45 mg/mL and the LC50 was 1470 µg/mL (≈ 6270 µM).

For `Cc1cc(=O)c2c(OC[C@H]3CO3)cc(OC[C@H]3CO3)cc2o1`, the IC50 in test [1] turned out to be 7.86 µM; in test [2], 220 µM; in test [3], 11.4 µM; in test [4], 229 µM; in test [5] it was 15.6 µM.

On to `Cc1cc(=O)c2c(O)cc(OC[C@H]3CO3)cc2o1`, for which the IC50 came out at 9.74 µM in test [1]; 22.9 µM in test [2]; 16.7 µM in test [3]; 27.2 µM in test [4]; 15.2 µM in test [5].

For `Cc1cc(=O)c2c(OC[C@@H]3CO3)cc(OC[C@H]3CO3)cc2o1`, the IC50 came out at 1.49 µM in test [1]; 13.9 µM in test [2]; 11 µM in test [3]; 12.1 µM in test [4]; 20.4 µM in test [5].

As to `CC(C)=C1C/C=C(\C)CC/C=C(\C)CC1=O`, in test [6], the LD90 was determined as 3.13 mg/mL and the LC50 is 1080 µg/mL (≈ 4950 µM).
